Results reported in patent publication US20140288074A1, “FUNGICIDAL PYRAZOLES” (E I DU PONT DE NEMOURS AND COMPANY, priority 2013, published 2014).
Marks after values point to notes of the source that are not given here.

Columns and labels:
Assay type in all cases: in vivo
[1] = test system: Alternaria solani; experiment: Test B: preventive spray on tomato seedlings, tomato early blight, visual disease rating
Experimental: General protocol for preparing test suspensions for Tests A-G: the test compounds were first dissolved in acetone in an amount equal to 3% of the final volume and then suspended at the desired concentration (in ppm) in acetone and purified water (50/50 mix by volume) containing 250 ppm of the surfactant Trem® 014 (polyhydric alcohol esters). The resulting test suspensions were then used in Tests A-G. Each test was conducted in triplicate, and the results were averaged. Spraying a 200 ppm test suspension to the point of run-off on the test plants was the equivalent of a rate of 800 g/ha. Unless otherwise indicated, the rating values indicate a 200 ppm test suspension was used. (An asterisk “*” next to the rating value indicates a 40 ppm test suspension was used.) The test suspension was sprayed to the point of run-off on tomato seedlings. The following day the seedlings were inoculated with a spore suspension of Alternaria solani (the causal agent of tomato early blight) and incubated in a saturated atmosphere at 27° C. for 48 h, and then moved to a growth chamber at 20° C. for 5 days, after which time visual disease ratings were made. Results for Tests A-G are given in Table A. In the Table, a rating of 100 indicates 100% disease control and a rating of 0 indicates no disease control (relative to the controls). A hyphen (-) indicates no test results.

[2] = test system: Septoria nodorum; experiment: Test C: preventive spray on wheat seedlings, Septoria glume blotch, visual disease rating; details: for pest or weed control at 200 ppm / Test C rating (disease control): 200 ppm test suspension, Septoria nodorum inoculated the day after spraying
How it was run: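 Compounds suspended in acetone/water (50/50) with 250 ppm surfactant, sprayed to run-off at 200 ppm (40 ppm where marked); seedlings inoculated next day, held 48 h saturated at 24 °C, then 9 days at 20 °C. Visual rating 0–100% disease control versus controls, triplicate averaged.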

[3] = test system: Blumeria graminis f. sp. tritici; experiment: Test G: preventive spray on wheat seedlings, wheat powdery mildew, visual disease rating;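 for all read-outs here: rated 8 days after spore dust inoculation at 20 °C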; details: for pest or weed control at 200 ppm / Test G rating (disease control): 200 ppm test suspension, Blumeria graminis f. sp. tritici inoculated the day after spraying
How it was run: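 Wheat seedlings sprayed to run-off with 200 ppm suspension (about 800 g/ha; asterisked values 40 ppm) in acetone/water with 250 ppm Trem 014. Inoculated next day with B. graminis spore dust and held at 20 °C for 8 days. Visual rating, 0–100 % disease control versus controls; triplicate, averaged.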

[4] = test system: Puccinia recondita f. sp. tritici; experiment: Test F: preventive spray on wheat seedlings, wheat leaf rust, visual disease rating; details: for pest or weed control at 200 ppm / Test F rating (disease control): 200 ppm test suspension, Puccinia recondita f. sp. tritici inoculated the day after spraying
How it was run: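 Compounds in acetone/water (50/50) with 250 ppm Trem 014, sprayed to run-off on seedlings at 200 ppm (800 g/ha) or 40 ppm where marked. Inoculated next day, 24 h saturated atmosphere at 20° C then 6 days at 20° C; visual rating, 100 = full control vs controls, triplicate averaged.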

[5] = test system: Botrytis cinerea; experiment: Test A: preventive spray on tomato seedlings, tomato Botrytis, visual disease rating; details: for pest or weed control at 200 ppm / Test A rating (disease control): 200 ppm test suspension, Botrytis cinerea inoculated the day after spraying
How it was run: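 Tomato seedlings were sprayed to run-off with test suspension, 200 ppm (≈800 g/ha) unless marked 40 ppm, in acetone/water with surfactant. They were inoculated with Botrytis cinerea spores next day, held 48 h saturated at 20 °C, then 3 days at 24 °C. Disease control was rated visually, 0–100 relative to controls, in triplicate.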

[6] = 200 ppm test suspension, Alternaria solani inoculated the day after spraying
[7] = Parastagonospora nodorum, 264 h

Question: `Cc1nn(C)c(C(O)C(C)C)c1-c1ccc(F)cc1Cl` (stereo not drawn) [Compound 2, 4-(2-chloro-4-fluorophenyl)-1,3-dimethyl-α-(1-methylethyl)-1H-pyrazole-5-methanol] was tested. Which “Test B rating (disease control)” value [1, 6] did it give?
Answer: The value was 0%.

Question: And the pest or weed control at 200 ppm [2, 7]?
Answer: Its pest or weed control at 200 ppm is 0%.

Question: What about the pest or weed control at 200 ppm ([3]; 192 h) of the same molecule?
Answer: The pest or weed control at 200 ppm was 97%.

Question: And the pest or weed control at 200 ppm ([4]; 168 h)?
Answer: Its pest or weed control at 200 ppm is 99%.

Question: And the pest or weed control at 200 ppm ([5]; 120 h)?
Answer: The pest or weed control at 200 ppm was 100%.

Question: For `CCCNc1c(-c2ccc(Cl)cc2Cl)c(C)nn1C` [Compound 3], which “Test B rating (disease control)” value [1, 6] is on record?
Answer: The value was 21%.

Question: What about the “Test C rating (disease control)” value [2] of the same molecule?
Answer: The value was 0%.

Question: And the “Test G rating (disease control)” value [3]?
Answer: The value was 0%.

Question: And the “Test F rating (disease control)” value [4]?
Answer: The value was 0%.

Question: What about the “Test A rating (disease control)” value [5] of the same molecule?
Answer: Its value is 65%.

Question: `Cc1nn(C)c(NCC(C)C)c1-c1ccc(Cl)cc1Cl` [Compound 4, 4-(2,4-dichlorophenyl)-1,3-dimethyl-N-(2-methylpropyl)-1H-pyrazol-5-amine] was tested. Which “Test B rating (disease control)” value [1, 6] did it give?
Answer: The value was 94%.

Question: And the pest or weed control at 200 ppm [2, 7]?
Answer: Its pest or weed control at 200 ppm is 0%.

Question: What about the pest or weed control at 200 ppm ([3]; 192 h) of the same molecule?
Answer: The pest or weed control at 200 ppm was 93%.

Question: And the pest or weed control at 200 ppm ([4]; 168 h)?
Answer: The pest or weed control at 200 ppm was 0%.

Question: What about the pest or weed control at 200 ppm ([5]; 120 h) of the same molecule?
Answer: Its pest or weed control at 200 ppm is 99%.

Question: With `CCCCNc1c(-c2ccc(Cl)cc2Cl)c(C)nn1C` [Compound 5, N-butyl-4-(2,4-dichlorophenyl)-1,3-dimethyl-1H-pyrazol-5-amine] as the molecule, how does the “Test B rating (disease control)” value [1, 6] read?
Answer: The value was 0%.

Question: What about the pest or weed control at 200 ppm [2, 7] of the same molecule?
Answer: The pest or weed control at 200 ppm was 0%.

Question: And the pest or weed control at 200 ppm ([3]; 192 h)?
Answer: Its pest or weed control at 200 ppm is 58%.

Question: What about the pest or weed control at 200 ppm ([4]; 168 h) of the same molecule?
Answer: The pest or weed control at 200 ppm was 27%.

Question: And the pest or weed control at 200 ppm ([5]; 120 h)?
Answer: Its pest or weed control at 200 ppm is 98%.

Question: Which “Test B rating (disease control)” value [1, 6] does the source give for `Cc1nn(C)c(NC2CCCCC2)c1-c1ccc(F)cc1F` [Compound 6, N-cyclohexyl-4-(2,4-difluorophenyl)-1,3-dimethyl-1H-pyrazol-5-amine] here?
Answer: The value was 99%.

Question: What about the pest or weed control at 200 ppm [2, 7] of the same molecule?
Answer: Its pest or weed control at 200 ppm is 0%.

Question: And the pest or weed control at 200 ppm ([3]; 192 h)?
Answer: The pest or weed control at 200 ppm was 91%.

Question: And the pest or weed control at 200 ppm ([4]; 168 h)?
Answer: Its pest or weed control at 200 ppm is 17%.

Question: What about the pest or weed control at 200 ppm ([5]; 120 h) of the same molecule?
Answer: The pest or weed control at 200 ppm was 99%.

Question: Which results are given for `CCC(C)C(O)c1c(-c2ccc(F)cc2Cl)c(C)nn1C` (stereo not drawn) [Compound 8, 4-(2-chloro-4-fluorophenyl)-1,3-dimethyl-α-(1-methylpropyl)-1H-pyrazole-5-methanol]?
Answer: Test B rating (disease control) [1, 6]: 99%; pest or weed control at 200 ppm [2, 7]: 0%; pest or weed control at 200 ppm ([3]; 192 h): 99%; pest or weed control at 200 ppm ([4]; 168 h): 100%; pest or weed control at 200 ppm ([5]; 120 h): 95%

Question: With `Cc1nn(C)c(C(O)C(C)(C)CCC#N)c1-c1c(F)cccc1F` (centres unmarked) [Compound 9] as the molecule, how does the “Test B rating (disease control)” value [1, 6] read?
Answer: The value was 0%.

Question: And the “Test C rating (disease control)” value [2]?
Answer: Its value is 0%.

Question: And the “Test G rating (disease control)” value [3]?
Answer: The value was 53%.

Question: And the “Test F rating (disease control)” value [4]?
Answer: Its value is 9%.

Question: And the “Test A rating (disease control)” value [5]?
Answer: Its value is 26%.

Question: `Cc1nn(C)c(C(O)C2=CCCCC2)c1-c1c(F)cccc1F` (centres unmarked) [Compound 10] was tested. Which “Test B rating (disease control)” value [1, 6] did it give?
Answer: Its value is 99%.

Question: And the “Test C rating (disease control)” value [2]?
Answer: Its value is 0%.

Question: What about the “Test G rating (disease control)” value [3] of the same molecule?
Answer: Its value is 85%.

Question: What about the “Test F rating (disease control)” value [4] of the same molecule?
Answer: Its value is 86%.

Question: And the “Test A rating (disease control)” value [5]?
Answer: Its value is 99%.

Question: For `Cc1nn(C)c(C(O)CC(C)C)c1-c1c(F)cccc1F` (centres unmarked) [Compound 11], which “Test B rating (disease control)” value [1, 6] is on record?
Answer: Its value is 81%.

Question: And the “Test C rating (disease control)” value [2]?
Answer: Its value is 0%.

Question: And the “Test G rating (disease control)” value [3]?
Answer: The value was 99%.

Question: What about the “Test F rating (disease control)” value [4] of the same molecule?
Answer: Its value is 89%.

Question: What about the “Test A rating (disease control)” value [5] of the same molecule?
Answer: Its value is 67%.

Question: Which results are given for `C=CCC(C)(C)C(O)c1c(-c2c(F)cccc2F)c(C)nn1C` (centres unmarked) [Compound 12]?
Answer: Test B rating (disease control) [1, 6]: 32%; Test C rating (disease control) [2]: 0%; Test G rating (disease control) [3]: 99%; Test F rating (disease control) [4]: 41%; Test A rating (disease control) [5]: 0%

Question: With `CCCCC(CC)C(O)c1c(-c2c(F)cccc2F)c(C)nn1C` (centres unmarked) [Compound 13] as the molecule, how does the “Test B rating (disease control)” value [1, 6] read?
Answer: The value was 0%.

Question: What about the “Test C rating (disease control)” value [2] of the same molecule?
Answer: Its value is 0%.

Question: What about the “Test G rating (disease control)” value [3] of the same molecule?
Answer: Its value is 96%.

Question: And the “Test F rating (disease control)” value [4]?
Answer: The value was 28%.

Question: And the “Test A rating (disease control)” value [5]?
Answer: The value was 0%.

Question: How did the “Test B rating (disease control)” value [1, 6] turn out when `CCCC(O)c1c(-c2c(F)cccc2F)c(C)nn1C` (centres unmarked) [Compound 14] was run?
Answer: Its value is 0%.

Question: And the “Test C rating (disease control)” value [2]?
Answer: The value was 0%.

Question: And the “Test G rating (disease control)” value [3]?
Answer: The value was 99%.

Question: And the “Test F rating (disease control)” value [4]?
Answer: Its value is 74%.

Question: What about the “Test A rating (disease control)” value [5] of the same molecule?
Answer: The value was 33%.

Question: For `CCC(C)C(O)c1c(-c2c(F)cccc2F)c(C)nn1C` (centres unmarked) [Compound 15], which “Test B rating (disease control)” value [1, 6] is on record?
Answer: The value was 99%.

Question: And the “Test C rating (disease control)” value [2]?
Answer: Its value is 0%.

Question: What about the “Test G rating (disease control)” value [3] of the same molecule?
Answer: The value was 99%.

Question: What about the “Test F rating (disease control)” value [4] of the same molecule?
Answer: Its value is 74%.

Question: And the “Test A rating (disease control)” value [5]?
Answer: Its value is 67%.

Question: `CCC(C)C(O)c1c(-c2c(F)cccc2Cl)c(C)nn1C` (stereo not drawn) [Compound 19, 4-(2-chloro-6-fluorophenyl)-1,3-dimethyl-α-(1-methylpropyl)-1H-pyrazole-5-methanol] was tested. Which “Test B rating (disease control)” value ([1]; 40 ppm test suspension (asterisk), Alternaria solani) did it give?
Answer: Its value is 0* %.

Question: What about the pest or weed control at 40 ppm ([2]; Parastagonospora nodorum, 264 h, 40 ppm test suspension (asterisk), Septoria nodorum) of the same molecule?
Answer: Its pest or weed control at 40 ppm is 0%.

Question: What about the pest or weed control at 40 ppm ([3]; 192 h, 40 ppm test suspension (asterisk), Blumeria graminis f. sp. tritici) of the same molecule?
Answer: The pest or weed control at 40 ppm was 95%.

Question: What about the pest or weed control at 40 ppm ([4]; 168 h, 40 ppm test suspension (asterisk), Puccinia recondita f. sp. tritici, preventive) of the same molecule?
Answer: Its pest or weed control at 40 ppm is 19%.

Question: And the pest or weed control at 40 ppm ([5]; 120 h, 40 ppm test suspension (asterisk), Botrytis cinerea)?
Answer: The pest or weed control at 40 ppm was 77%.

Question: `Cc1nn(C)c(C(O)CC(C)C)c1-c1c(F)cccc1Cl` (centres unmarked) [Compound 20] was tested. Which “Test B rating (disease control)” value [1, 6] did it give?
Answer: The value was 93%.

Question: What about the “Test C rating (disease control)” value [2] of the same molecule?
Answer: The value was 0%.

Question: What about the “Test G rating (disease control)” value [3] of the same molecule?
Answer: Its value is 99%.

Question: And the “Test F rating (disease control)” value [4]?
Answer: The value was 86%.

Question: What about the “Test A rating (disease control)” value [5] of the same molecule?
Answer: The value was 92%.

Question: For `CCCC(O)c1c(-c2c(F)cccc2Cl)c(C)nn1C` (centres unmarked) [Compound 21], which “Test B rating (disease control)” value [1, 6] is on record?
Answer: The value was 56%.

Question: What about the “Test C rating (disease control)” value [2] of the same molecule?
Answer: The value was 0%.

Question: What about the “Test G rating (disease control)” value [3] of the same molecule?
Answer: The value was 99%.

Question: What about the “Test F rating (disease control)” value [4] of the same molecule?
Answer: The value was 74%.

Question: And the “Test A rating (disease control)” value [5]?
Answer: Its value is 75%.
